Reference: patent US9113629B2, “4-amino-6-(4-substituted-phenyl)-picolinates and 6-amino-2-(4-substituted-phenyl)-pyrimidine-4-carboxylates and their use as herbicides” (DOW AGROSCIENCES LLC, priority 2013, dated 2015)
Where two headings read alike, the source gives them in different places.

How the values were obtained:
[1] = tested on: Key Broadleaf Weed and Crop Species; assay: Post-emergent Test II herbicidal activity (Table 5); type: in vivo; conditions: post-emergence, 336 h, 14 days after application; for pest or weed control at 70 g/ha: application rate 70 g ai/ha; for pest or weed control at 140 g/ha: application rate 140 g ai/ha
Summary of the method: (§1)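 Foliar application at 187 L/ha to greenhouse-grown seedlings (first or second true leaf); subirrigation thereafter. Visual 0–100% injury at 14 d relative to untreated plants.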

[2] = tested on: Key Grass and Sedge Weeds as well as Grass Crops; assay: Post-emergent Test II herbicidal activity (Table 6); type: in vivo; conditions: post-emergence, 336 h; for pest or weed control at 70 g/ha: 70 g ai/ha; for pest or weed control at 140 g/ha: 140 g ai/ha
Summary of the method: as §1

[3] = ABUTH: velvetleaf (Abutilon theophrasti), read-out: Visual Growth Reduction (%) 14 Days After Application, ABUTH
[4] = AMARE: redroot pigweed (Amaranthus retroflexus), read-out: Visual Growth Reduction (%) 14 Days After Application, AMARE
[5] = BRSNN: oilseed-rape, canola (Brassica napus), read-out: Visual Growth Reduction (%) 14 Days After Application, BRSNN
[6] = CHEAL: lambsquarters (Chenopodium album), read-out: Visual Growth Reduction (%) 14 Days After Application, CHEAL
[7] = EPHHL: wild poinsettia (Euphorbia heterophylla), read-out: Visual Growth Reduction (%) 14 Days After Application, EPHHL
[8] = HELAN: sunflower (Helianthus annuus), read-out: Visual Growth Reduction (%) 14 Days After Application, HELAN
[9] = VIOTR: wild pansy (Viola tricolor), read-out: Visual Growth Reduction (%) 14 Days After Application, VIOTR
[10] = CYPES: yellow nutsedge (Cyperus esculentus), read-out: Visual Growth Reduction (%) 14 Days After Application, CYPES
[11] = DIGSA: crabgrass (Digitaria sanguinalis), read-out: Visual Growth Reduction (%) 14 Days After Application, DIGSA
[12] = ECHCG: barnyardgrass (Echinochloa crus-galli), read-out: Visual Growth Reduction (%) 14 Days After Application, ECHCG
[13] = ORYSA: rice (Oryza sativa), crop, read-out: Visual Growth Reduction (%) 14 Days After Application, ORYSA
[14] = SETFA: giant foxtail (Setaria faberi), read-out: Visual Growth Reduction (%) 14 Days After Application, SETFA
[15] = SORVU: grain sorghum (Sorghum vulgare), read-out: Visual Growth Reduction (%) 14 Days After Application, SORVU
[16] = TRZSS (wheat, Triticum aestivum), crop, read-out: Visual Growth Reduction (%) 14 Days After Application, TRZSS
[17] = ZEAMX: maize, corn (Zea mays), crop, read-out: Visual Growth Reduction (%) 14 Days After Application, ZEAMX

COc1c(N)nc(-c2ccc(Br)cc2)nc1C(=O)O [Compound 54]
pest or weed control at 70 g/ha [1, 3]: 85 to 94%
pest or weed control at 140 g/ha [1, 3]: 85 to 94%
pest or weed control at 70 g/ha [1, 4]: 95 to 100%
pest or weed control at 140 g/ha [1, 4]: 95 to 100%
pest or weed control at 70 g/ha [1, 5]: 95 to 100%
pest or weed control at 140 g/ha [1, 5]: 95 to 100%
pest or weed control at 70 g/ha [1, 6]: 95 to 100%
pest or weed control at 140 g/ha [1, 6]: 95 to 100%
pest or weed control at 70 g/ha [1, 7]: 95 to 100%
pest or weed control at 140 g/ha [1, 7]: 95 to 100%
pest or weed control at 70 g/ha [1, 8]: 85 to 94%
pest or weed control at 140 g/ha [1, 8]: 95 to 100%
pest or weed control at 70 g/ha [1, 9]: 30 to 44%
pest or weed control at 140 g/ha [1, 9]: 45 to 59%
pest or weed control at 70 g/ha [2, 10]: 45 to 59%
pest or weed control at 140 g/ha [2, 10]: 95 to 100%
pest or weed control at 70 g/ha [2, 11]: 0 to 29%
pest or weed control at 140 g/ha [2, 11]: 60 to 74%
pest or weed control at 70 g/ha [2, 12]: 95 to 100%
pest or weed control at 140 g/ha [2, 12]: 95 to 100%
pest or weed control at 70 g/ha [2, 13]: 0 to 29%
pest or weed control at 140 g/ha [2, 13]: 0 to 29%
pest or weed control at 70 g/ha [2, 14]: 75 to 84%
pest or weed control at 140 g/ha [2, 14]: 75 to 84%
pest or weed control at 70 g/ha [2, 15]: 60 to 74%
pest or weed control at 140 g/ha [2, 15]: 75 to 84%
pest or weed control at 70 g/ha [2, 16]: 45 to 59%
pest or weed control at 140 g/ha [2, 16]: 45 to 59%
pest or weed control at 70 g/ha [2, 17]: 95 to 100%
pest or weed control at 140 g/ha [2, 17]: 95 to 100%
